Data on three compounds can be found in patent publication US12391684B2, “Pharmaceutical formulations and methods for the treatment of gastrointestinal disorders” (Renexxion, LLC, priority 2018, dated 2025).

The structures appear in SMILES notation. Where a name gives a salt, the structure may show the parent alone. Read-outs that look alike come from different tables or passages of the source.

Data set [1] can be described thus: 12-month stability of the anhydrous form in stability chambers (HPLC purity, water content). Type of data set: physicochemical. The note with it: 25° C./60% RH. As to the method: The dihydrochloride salt, anhydrous form of (3S, 4R, 3′R)-6-[4-(4-amino-5-chloro-2-methoxy-benzoylamino)-3-methoxy-piperidin-1-yl]-hexanoic acid 1-azabicyclo[2.2.2]oct-3′-yl ester, was placed in stability chambers with temperature and humidity controlled, for up to 12 months. The temperature was set at 25° C., and the relative humidity was set at 60%. The samples were assayed at time zero, then at 3, 6, 9, and 12 months using an HPLC method. The HPLC conditions were as follows: • Column: Inertsil C8-3, 250 mm length, 3 mm diameter, 5 μm particle size • Mobile Phase A: 2000 mL water+3 mL formic acid • Mobile Phase B: 1000 mL methanol+3 mL formic acid • Flow rate: 0.6 mL/min • Detection wavelength: 275 nm • Injection volume: 20 uL • Time: 50 minutes

A short description of data set [2]: Dehydration profile by thermographic analysis (TGA). The settings on record: dry nitrogen, 5° C./minute, 25° C. to 250° C. Type of data set: physicochemical. As to the method: Thermographic analysis (TGA) curves were generated for the anhydrate and trihydrate using a Perkin Elmer TGA-7. Three to five milligram samples were weighed into aluminum sample pans and run under dry nitrogen at 5° C./minute from 25° C. to 250° C. The data were exported to Excel to enable plotting.

The conditions of data set [3]: for Resulting Form: Antisolvent Water, Ambient, stirred 3 weeks. On the procedure:
Noncompetitive Slurry Experiments for Polymorph Screening: Noncompetitive slurry experiments were performed as a supplemental polymorph screening method. When suspensions of a polymorphic material are prepared, any polymorphic form with a lower solubility (more thermodynamically stable form) can nucleate. The nucleated forms can convert all the residual solids to the nucleated form via solvent-mediated phase transition. Suspensions of the isolated Form I were prepared by adding excess solid to several different solvent systems. The suspensions were stirred vigorously at ambient temperature for 3 weeks. The remaining solids were collected by vacuum filtration and analyzed by powder X-ray diffraction to determine if any changes in the crystalline form of the solids occurred.

Data set [4] in a line: Stability of the trihydrate form stored in bulk in a GMP storage facility. The settings on record: room temperature, relative humidity >30%, up to 11 years. Type of data set: physicochemical. On the procedure:
The trihydrate form was evaluated for stability with regard to purity and strength over a time period of up to 11 years, by storing it in a GMP facility under controlled conditions of temperature and relative humidity (temperature=room temperature and relative humidity >30%).

With `COc1cc(N)c(Cl)cc1C(=O)N[C@@H]1CCN(CCCCCC(=O)O[C@H]2CN3CCC2CC3)C[C@@H]1OC` [(3S, 4R, 3′R)-6-[4-(4-amino-5-chloro-2-methoxy-benzoylamino)-3-methoxy-piperidin-1-yl]-hexanoic acid 1-azabicyclo[2.2.2]oct-3′-yl ester], the “Purity HPLC (Area %)” value in data set [1] (3 months) stood at 99.2 Area %; in data set [1] (6 months), 99.3 Area %; in data set [1] (9 months), 99.2 Area %; in data set [1] (12 months), 99.3 Area %; in data set [1] (time 0 months), 99.3 Area %. In addition, the “Water Content” value in data set [1] (3 months) came out at 6.47%; in data set [1] (6 months), 8.47%; in data set [1] (6 months, listed as Anhydrous Form of the Dihydrochloride Salt) it was 8.47%; in data set [1] (9 months), 8.20%; in data set [1] (12 months) it was 8.43%; in data set [1] (time 0 months), 0.45%. Besides, the “Water Content” value in data set [1] (time 0 months, listed as Anhydrous Form of the Dihydrochloride Salt) stood at 0.45%. Besides, in data set [1] (up to 12 months), the “Decrease in strength of the active ingredient due to increase in water content” value is “approximately 8%”. Further, in data set [1] (up to 12 months), the “Purity of the compound versus specifications (Purity HPLC Area %)” value is “remained within the specifications”. Further, the “Dehydration mass loss (TGA)” value in data set [2] is reported as “absent”.
In the case of `COc1cc(N)c(Cl)cc1C(=O)N[C@@H]1CCN(CCCCCC(=O)O[C@H]2CN3CCC2CC3)C[C@@H]1OC` [Form I, (3S, 4R, 3′R)-6-[4-(4-amino-5-chloro-2-methoxy-benzoylamino)-3-methoxy-piperidin-1-yl]-hexanoic acid 1-azabicyclo[2.2.2]oct-3′-yl ester], the “Resulting Form” value in data set [3] (Solvent 1-Propanol), in data set [3] (Solvent Acetonitrile), in data set [3] (Solvent Ethanol), in data set [3] (Solvent Methanol) and in data set [3] (Solvent Water) was “Form 1” in each case. Besides, the “Thermodynamic stability among anhydrous forms” value in data set [3] (outcome of the slurry experiments) is on record as “most thermodynamically stable anhydrous form”.
For `COc1cc(N)c(Cl)cc1C(=O)N[C@@H]1CCN(CCCCCC(=O)O[C@H]2CN3CCC2CC3)C[C@@H]1OC` [Compound 1, (3S, 4R, 3′R)-6-[4-(4-amino-5-chloro-2-methoxy-benzoylamino)-3-methoxy-piperidin-1-yl]-hexanoic acid 1-azabicyclo[2.2.2]oct-3′-yl ester di-hydrochloride salt], in data set [4], the “Stability under GMP storage” value was “stable under GMP storage”.
